Columns and labels:
[1] = biological target: Pseudomonas moorei glufosinate-ammonium dehydrogenase E3 (SEQ ID NO: 6) variant PPTGDH-L107R-F188P-G239K-F357G, SEQ ID NO: 9 (Pseudomonas moorei, UniProt A0A1H1HZ48, F188P/F357G/G239K/L107R); assay: Kinetic parameters of purified mutant PPTGDH-L107R-F188P-G239K-F357G
Description: (§1) 1. […] The mutant proteins were purified by Ni-NTA column(1.6×10 cm, Bio-Rad, the USA), and the specific operations were carried out as follows: (1)equilibrate a Ni-NTA column with 5 column volumes of a binding buffer(pH 8.0, 50 mM sodium phosphate buffer containing 0.3 M NaCl) until the baseline is steady; (2)load the sample with a flow rate of 1 mL/min with the amount of the loading sample of 25-40 mg/mL, thereby attaching the target protein to the Ni-NTA column; (3)wash the column with 6 column volumes of buffer A (pH 8.0, 50 mM sodium phosphate buffer containing 0.3 M NaCl and 30 mM imidazole) at a flow rate of 1 mL/min until the baseline is steady; (4)wash the column with buffer B (pH 8.0, 50 mM sodium phosphate buffer containing 0.3 M NaCl and 500 mM imidazole) at a flow rate of 1 mL/min, collect the target protein and dialyze overnight in a pH 7.5, 20 mM phosphate buffer, thereby obtaining the pure glufosinate-ammonium dehydrogenase; and (5)wash the Ni-NTA column with 5 column volumes of a binding buffer(pH 8.0, 50 mM sodium phosphate buffer containing 0.3 M NaCl) until the baseline is steady, and store the Ni-NTA column in 5 column volumes of ultrapure water containing 20% ethanol.

[2] = biological target: Pseudomonas moorei glufosinate-ammonium dehydrogenase E3 (PPTGDH, PPTGDHE3, WP_090325311.1), wild type, SEQ ID NO: 6 (Pseudomonas moorei, UniProt A0A1H1HZ48); assay: Kinetic parameters of purified original glufosinate-ammonium dehydrogenase PPTGDH; details: pH 7.4, 35° C.
Description: as §1

## NC(=O)C1=CN([C@@H]2O[C@H](COP(=O)(O)OP(=O)(O)OC[C@H]3O[C@@H](n4cnc5c(N)ncnc54)[C@H](OP(=O)(O)O)[C@@H]3O)[C@@H](O)[C@H]2O)C=CC1 [NADPH]
[1]; mutant vs original enzyme
  catalytic efficiency for the coenzyme NADPH, times higher than that of the original enzyme: 34.61 times
[1]; pH 7.4, 35° C.
  kcat/Km^A (NADPH): 1.3703e+07 M⁻¹ s⁻¹

## CP(=O)(O)CCC(=O)C(=O)O [PPO, 2-carbonyl-4-[(hydroxy)(methyl)phosphinoyl]-butyric acid]
[2]
  kcat/Km^B (PPO): 15220 M⁻¹ s⁻¹
[1]; mutant vs original enzyme
  catalytic efficiency kcat/Km^B (PPO), times higher than that of the original enzyme: 22.19 times
[1]; pH 7.4, 35° C.
  kcat/Km^B (PPO): 337730 M⁻¹ s⁻¹

Source: patent publication US12031160B2, “Method for the production of glufosinate-ammonium” (ZHEJIANG UNIVERSITY OF TECHNOLOGY, priority 2018, dated 2024)
